From the supplement of paper PMC11208160

Experiment: recombinant barcode read abundance after kanamycin selection (control-corrected) (log10(CPM+1)); higher = more efficient recombination; sequences stand for … in AGTGCAGAGAAAATCGGCCAGTTTTCTCTGCCTGCAGTCCGCATGCCGT…AGATTTATGCAGCGGACTGCCTTTCTCCCAAAGTGATAAACCGGACAGTATCATGGACCGGTTTTCCCGGTAATCCGTATTTGCAAGGTTGGTTTCACT; site = the 11-nt target
Outline: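 Recombination efficiency comes from barcode counts at recombinant junctions, converted to counts per million, averaged and corrected against the control. Values appear as log10(CPM+1). They were obtained from a pooled E. coli screen in which each oligo paired a target with an IS621 bridge RNA target-binding loop, and cells were plated in duplicate on chloramphenicol/ampicillin LB agar or on chloramphenicol/ampicillin/kanamycin with 0.1 mM IPTG.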
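Also: IS621 recombinase and bridge RNA in Escherichia coli cells.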

Sequence	recombinant barcode read abundance (log10)
CCGGGTTCTTGGGTTCTAACCTGTTGCCT (site CTGGGTTCTAG)	0.154
CCGGTCCCTTGGGTTCTAACCTGTTGCAG (site CCGGTCCCTCT)	2.07
CCGGTCCCTTGGGTTCTAACCTGTTGCAG (site GGACAGTCTAC)	0.307
CCGTAAACTTGGGTTCTAACCTGTTGCCT (site CCGTAAACTAG)	0.35
CCGTAAACTTGGGTTCTAACCTGTTGCCT (site CCGTAACCTAG)	0.0417
CCGTAAACTTGGGTTCTAACCTGTTGCCT (site CCGTAAGCTAG)	0.418
CCGTAAACTTGGGTTCTAACCTGTTGCCT (site CCGTAATCTAG)	0.0331
CCGTAACCTTGGGTTCTAACCTGTTGCCT (site CCGTAAACTAG)	0.149
CCGTAACCTTGGGTTCTAACCTGTTGCCT (site CCGTAACCTAG)	1.57
CCGTAACCTTGGGTTCTAACCTGTTGCCT (site CCGTAAGCTAG)	0.00896
CCGTAACCTTGGGTTCTAACCTGTTGCCT (site CCGTAATCTAG)	0.237
CCGTAATCTTGGGTTCTAACCTGTTGCCT (site CCGTAAACTAG)	0.0257
CCGTAATCTTGGGTTCTAACCTGTTGCCT (site CCGTAACCTAG)	0.47
CCGTAATCTTGGGTTCTAACCTGTTGCCT (site CCGTAAGCTAG)	0.211
CCGTAATCTTGGGTTCTAACCTGTTGCCT (site CCGTAATCTAG)	0.308
CCGTAGCCTTGGGTTCTAACCTGTTGCCT (site CCGAAGCCTAG)	0.129
CCGTAGCCTTGGGTTCTAACCTGTTGCCT (site CCGCAGCCTAG)	0.288
CCGTAGCCTTGGGTTCTAACCTGTTGCCT (site CCGGAGCCTAG)	0.162
CCGTAGCCTTGGGTTCTAACCTGTTGCCT (site CCGTAGCCTAG)	1.03
CCGTAGTCTTGGGTTCTAACCTGTTGCCT (site CCGTACTCTAG)	0.0425
CCGTAGTCTTGGGTTCTAACCTGTTGCCT (site CCGTAGTCTAG)	0.899
CCGTCAACTTGGGTTCTAACCTGTTGCCT (site CCGTCAACTAG)	0.226

Sequence	recombinant barcode read abundance (log10)
CCGTCAACTTGGGTTCTAACCTGTTGCCT (site GTACTCTCTCT)	0.0368
CCGTCATCTTGGGTTCTAACCTGTTGCCT (site CCGTCATCTAG)	0.108
CCGTCATCTTGGGTTCTAACCTGTTGCCT (site CCGTCGTCTAG)	0.234
CCGTGCCCTTGGGTTCTAACCTGTTGCCT (site CCGTGCCCTAG)	0.676
CCGTGCCCTTGGGTTCTAACCTGTTGCCT (site GCGTGCCCTAG)	0.0432
CCGTGGCCTTGGGTTCTAACCTGTTGCTT (site CCGTGGACTAG)	0.0169
CCGTGGCCTTGGGTTCTAACCTGTTGCTT (site CCGTGGCCTAA)	0.176
CCGTGTCCTTGGGTTCTAACCTGTTGCCG (site CCGTGTCCTCG)	1.32
CCGTGTCCTTGGGTTCTAACCTGTTGCCG (site GCGTGTCCTTG)	0
CCGTTATCTTGGGTTCTAACCTGTTGCCT (site CCGATATCTAG)	0.0227
CCGTTATCTTGGGTTCTAACCTGTTGCCT (site CCGCTATCTAG)	0
CCGTTATCTTGGGTTCTAACCTGTTGCCT (site CCGGTATCTAG)	0.0837
CCGTTATCTTGGGTTCTAACCTGTTGCCT (site CCGTTATCTAG)	0.0274
CCTAACGCTTGGGTTCTAACCTGTTGCCT (site CCTAACGCTAG)	0.625
CCTAACGCTTGGGTTCTAACCTGTTGCCT (site CCTCGCGCTAG)	0.0688
CCTAAGACTTGGGTTCTAACCTGTTGCCC (site CCTAAGACTAG)	0.23
CCTAAGACTTGGGTTCTAACCTGTTGCCC (site CCTAAGACTCG)	0.0665
CCTAAGACTTGGGTTCTAACCTGTTGCCC (site CCTAAGACTGG)	0.16
CCTAAGACTTGGGTTCTAACCTGTTGCCC (site CCTAAGACTTG)	0.0914
CCTAAGCCTTGGGTTCTAACCTGTTGCGT (site CCTAAACCTAC)	1.23
CCTAAGCCTTGGGTTCTAACCTGTTGCGT (site CCTAACCCTAC)	0.977
CCTAAGCCTTGGGTTCTAACCTGTTGCGT (site CCTAAGCCTAC)	1.21

Sequence	recombinant barcode read abundance (log10)
CCTAAGCCTTGGGTTCTAACCTGTTGCGT (site CCTAATCCTAC)	0.161
CCTAAGCCTTGGGTTCTAACCTGTTGCTG (site CCTAAGCCTCA)	0.473
CCTAAGCCTTGGGTTCTAACCTGTTGCTG (site TACCCTTCTAC)	0.141
CCTAATACTTGGGTTCTAACCTGTTGCGT (site CCTAATACTAC)	0.988
CCTAATACTTGGGTTCTAACCTGTTGCGT (site CCTTAGACTAC)	0.0351
CCTAATCCTTGGGTTCTAACCTGTTGCGT (site CCTAAACCTAC)	0.0528
CCTAATCCTTGGGTTCTAACCTGTTGCGT (site CCTAACCCTAC)	0.295
CCTAATCCTTGGGTTCTAACCTGTTGCGT (site CCTAAGCCTAC)	0.22
CCTAATCCTTGGGTTCTAACCTGTTGCGT (site CCTAATCCTAC)	1.1
CCTACAACTTGGGTTCTAACCTGTTGCCT (site CCTACAACTAG)	0.313
CCTACAACTTGGGTTCTAACCTGTTGCCT (site CCTACACCTAG)	0.0313
CCTACAACTTGGGTTCTAACCTGTTGCCT (site CCTACAGCTAG)	0.138
CCTACAACTTGGGTTCTAACCTGTTGCCT (site CCTACATCTAG)	0.227
CCTACAGCTTGGGTTCTAACCTGTTGCCT (site CCTACAACTAG)	0.363
CCTACAGCTTGGGTTCTAACCTGTTGCCT (site CCTACACCTAG)	0.37
CCTACAGCTTGGGTTCTAACCTGTTGCCT (site CCTACAGCTAG)	0.532
CCTACAGCTTGGGTTCTAACCTGTTGCCT (site CCTACATCTAG)	0.0747
CCTACATCTTGGGTTCTAACCTGTTGCTA (site CCTACATCTAT)	0.177
CCTACATCTTGGGTTCTAACCTGTTGCTA (site CCTACATCTTA)	0.0332
CCTACGCCTTGGGTTCTAACCTGTTGCCA (site CCTACGCCTTG)	0.842
CCTACGCCTTGGGTTCTAACCTGTTGCCA (site TTCCGAGCTCT)	0
CCTACTACTTGGGTTCTAACCTGTTGCCG (site CCTACTACTCG)	0.0812

Sequence	recombinant barcode read abundance (log10)
CCTACTACTTGGGTTCTAACCTGTTGCCG (site CCTACTCCTCT)	0.0358
CCTACTCCTTGGGTTCTAACCTGTTGCCT (site CCTACTCCTAG)	0.281
CCTACTCCTTGGGTTCTAACCTGTTGCCT (site CCTGCTCCTAA)	0.0634
CCTAGAGCTTGGGTTCTAACCTGTTGCCT (site CCTAGAACTAG)	0.097
CCTAGAGCTTGGGTTCTAACCTGTTGCCT (site CCTAGACCTAG)	0.241
CCTAGAGCTTGGGTTCTAACCTGTTGCCT (site CCTAGAGCTAG)	0.694
CCTAGAGCTTGGGTTCTAACCTGTTGCCT (site CCTAGATCTAG)	0.0587
CCTAGATCTTGGGTTCTAACCTGTTGCCT (site CCTAGAACTAG)	0.107
CCTAGATCTTGGGTTCTAACCTGTTGCCT (site CCTAGACCTAG)	0.141
CCTAGATCTTGGGTTCTAACCTGTTGCCT (site CCTAGAGCTAG)	0.0181
CCTAGATCTTGGGTTCTAACCTGTTGCCT (site CCTAGATCTAG)	0.372
CCTATGTCTTGGGTTCTAACCTGTTGCTA (site ACTATGTCTTG)	0.0985
CCTATGTCTTGGGTTCTAACCTGTTGCTA (site CCTATGTCTTA)	0.528
CCTCCCTCTTGGGTTCTAACCTGTTGCTA (site CCTCCCTCTCA)	0.481
CCTCCCTCTTGGGTTCTAACCTGTTGCTA (site CCTCCCTCTTA)	1.84
CCTGACACTTGGGTTCTAACCTGTTGCGG (site CCTGACACTCC)	1.66
CCTGACACTTGGGTTCTAACCTGTTGCGG (site CCTTACACTCC)	0.232
CCTGGGACTTGGGTTCTAACCTGTTGCGC (site CCTGGGACTAC)	0.684
CCTGGGACTTGGGTTCTAACCTGTTGCGC (site CCTGGGACTCC)	0.347
CCTGGGACTTGGGTTCTAACCTGTTGCGC (site CCTGGGACTGC)	1.24
